In PMC9894685, “Abscisic acid agonists suitable for optimizing plant water use” (Frontiers in Plant Science, 2023):

Experiments:
RCAR11-ABI2 [1] = experiment: Yeast ABA signal pathway LUC reporter, RCAR11-ABI2; type: cell-based, Arabidopsis thaliana
Experimental: (§1) The yeast cultivation and the life luciferase assay were performed as described ([Ruschhaupt et al., 2019]). Briefly, the reporter yeast expressing an ABA-dependent luciferase gene (LUC) was transformed with different combinations of ABA signaling components as indicated. Golden gate cloning ([Binder et al., 2014]) was used to construct pYEAST_LII_5‐6_CEN_URA vector with TDH3 promoter and TDH1 terminator (tTDH1), pYEAST_LII_1‐2_CEN_LEU vector with GK1 promoter and tTDH1, and pYEAST_LII_3‐4_CEN_TRP with the GAL1 promoter (pGAL1) and tTDH1 to express RCARs, PP2Cs, and OST1 (SnRK2.6), respectively ([Ruschhaupt et al., 2019]). The expression of ABF2 in yeast relies on a modified pGREG503 vector, in which pGAL1 ([Jansen et al., 2005]) was replaced by the ADH1 promoter.
(§2) Colonies of freshly transformed cells were inoculated in 0.5 mL supplemented synthetic dextrose (SD) medium and incubated at 30°C in a gyratory shaker (Thermoshake-THO500, Gerhardt, Königswinter, Germany) at 200 rpm for 16-18 h. After overnight growth, the cells were harvested and washed in SD medium followed by inoculation in SD medium containing 2% galactose for induction of SnRK2 kinases under the control of the GAL1 promoter and supplementation with ligands at indicated concentrations, to an OD600 of 0.2 in flat-bottom 96-well plates (CytoOne, Starlab, Hamburg, Germany). Yeast cultures were incubated at 30°C and 200 rpm for 16-18 h before determination of LUC activity and cell density. Light emission of yeasts was detected in a HIDEX plate luminometer (HIDEX, Turku, Finland) after injection of 100 µL freshly prepared luciferin substrate (1 mM D-luciferin, Promega) provided in 100 mM citric acid, pH 3 ([Leskinen et al., 2003]) for 5 s and was corrected for background. The LUC activity was normalized to the cell density (OD600) measured in 96-well flat plates (Sarstedt, Nümbrecht, Germany). LUC activity is given as the ratio of light emission to OD600 in counts per second.

RCAR1-ABI2 = target: T1, RCAR1-ABI2 (Arabidopsis thaliana, UniProt O04719+Q84MC7); experiment: In vitro phosphatase assay, ABI2 with RCAR1; type: biochemical; conditions: for Statistical significance of RCAR1-mediated inhibition of ABI2 phosphatase activity vs ABA: Fig. 3B
T1 construct: 6xHis (N); made in house; host or cells: Escherichia coli BL21
T1 sequence (Q84MC7 1-187): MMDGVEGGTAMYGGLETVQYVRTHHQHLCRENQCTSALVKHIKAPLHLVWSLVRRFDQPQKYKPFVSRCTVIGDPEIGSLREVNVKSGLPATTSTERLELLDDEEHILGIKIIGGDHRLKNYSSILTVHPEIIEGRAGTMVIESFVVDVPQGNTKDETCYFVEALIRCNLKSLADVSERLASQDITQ
T1 sequence (O04719 1-423): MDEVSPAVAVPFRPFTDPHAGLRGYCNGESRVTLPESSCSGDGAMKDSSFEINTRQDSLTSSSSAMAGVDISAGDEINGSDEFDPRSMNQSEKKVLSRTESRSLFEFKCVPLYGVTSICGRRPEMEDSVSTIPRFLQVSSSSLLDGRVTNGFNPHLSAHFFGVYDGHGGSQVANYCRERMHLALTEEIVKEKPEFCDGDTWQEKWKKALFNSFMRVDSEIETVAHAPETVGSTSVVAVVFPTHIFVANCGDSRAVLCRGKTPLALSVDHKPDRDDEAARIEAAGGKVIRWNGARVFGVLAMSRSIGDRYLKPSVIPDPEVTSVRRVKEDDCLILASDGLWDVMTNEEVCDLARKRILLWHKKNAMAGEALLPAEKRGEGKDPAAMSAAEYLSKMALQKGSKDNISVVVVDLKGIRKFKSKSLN
Experimental: (§3) Expression, purification, and analysis of RCAR and PP2C proteins were performed essentially as described ([Ruschhaupt et al., 2019]). Briefly, the ABA receptors RCAR1, RACR8, and RCAR11 were expressed with an aminoterminal histidine tag using the pSEVA431_LII_6xHIS::RCAR1/RCAR8/RCAR11. ABA coreceptors were expressed as histidine-tagged fusions with the maltose-binding protein using the pSEVA431_LII_6xHIS::MBP::ABI2/HAB1. All constructs were transformed and expressed in Escherichia coli strain BL21 and purified to homogeneity according to supplier’s instruction (GE Healthcare, Chicago, USA). The receptor assay was performed with 100 nM PP2C and a two-fold molar excess of RCAR. Values are means ± SD of three replicates. […] The maximum inhibition was set to 100% in the figures. The phosphatase activity was measured using 4-methylumbelliferyl-phosphate as a substrate ([Meinhard and Grill, 2001]). The increase in fluorescence was recorded over 25 min with excitation and emission wavelengths at 360 and 460 nm, respectively, using a Synergy 2 plate reader (Bio-Tec, Winooski, USA).

Arabidopsis plants = experiment: Foliar administration and thermal imaging of leaf temperature (transpiration), Arabidopsis; type: in vivo, Arabidopsis thaliana
Experimental: (§4) Thermal imaging was carried out as described ([Yang et al., 2016]). An assessment of the efficacy of ABA and CCPs was conducted by using 35-day-old Arabidopsis and 30-day-old wheat plants. Stock solutions (10 mM) of CCPs and ABA dissolved in dimethyl sulfoxide (DMSO) were diluted to the respective ligand concentrations (10, 30, 100 µM) in water containing 0.01% (v/v) Tween 20. Aqueous Tween 20 solutions supplemented with 0.1%, 0.3%, and 1% DMSO served for mock treatments. The solutions were sprayed onto the leaf surface until the run-off of droplets. One day after application (unless otherwise indicated), thermal imaging was conducted using the InfraTec instrument (IR-TCM 384, InfraTec, Dresden, Germany). The leaf temperature of Arabidopsis was determined as the average temperature of all leaves. The leaf temperature of wheat was determined as described ([Yang et al., 2019]).

RCAR1/PYL9-ABI2 = experiment: Yeast ABA signal pathway LUC reporter, RCAR1-ABI2; type: cell-based, Arabidopsis thaliana
Experimental: as §1, with “The expression of ABF2 in yeast relies on a modified pGREG503 vector, in which pGAL1 ([Jansen et al., 2005]) was replaced by the ADH1 promoter.” left out
Colonies of freshly transformed cells were inoculated in 0.5 mL supplemented synthetic dextrose (SD) medium and incubated at 30°C in a gyratory shaker (Thermoshake-THO500, Gerhardt, Königswinter, Germany) at 200 rpm for 16-18 h. […] Light emission of yeasts was detected in a HIDEX plate luminometer (HIDEX, Turku, Finland) after injection of 100 µL freshly prepared luciferin substrate (1 mM D-luciferin, Promega) provided in 100 mM citric acid, pH 3 ([Leskinen et al., 2003]) for 5 s and was corrected for background. The LUC activity was normalized to the cell density (OD600) measured in 96-well flat plates (Sarstedt, Nümbrecht, Germany). […]

ABI1 with RCAR11/PYR1 = system: ABI1 with RCAR11/PYR1; set-up: method as in Frackenpohl et al., 2018; conditions: ref Frackenpohl et al., 2018; cited from earlier work
RCAR8-ABI2 = experiment: In vitro phosphatase assay, ABI2 with RCAR8; type: biochemical, Arabidopsis thaliana; conditions: 100 nM ABI2, 200 nM RCAR8
Experimental: as §3

RCAR11-ABI2 [2] = system: T2, RCAR11-ABI2; experiment: In vitro phosphatase assay, ABI2 with RCAR11; type: biochemical, Arabidopsis thaliana; conditions: 100 nM ABI2, 200 nM RCAR11
T2 construct: 6xHis (N); made in house; host or cells: Escherichia coli BL21
Experimental: as §3

wheat plants = experiment: Foliar administration and thermal imaging of leaf temperature, wheat; type: in vivo, Triticum aestivum; conditions: 100 μM, 24 h after administration
Experimental: as §4

RCAR8/PYL5-ABI2 = system: T3, RCAR8/PYL5-ABI2; experiment: Yeast ABA signal pathway LUC reporter, RCAR8-ABI2; type: cell-based, Arabidopsis thaliana
T3 construct: expressed in transfected cells; host or cells: yeast (LUC reporter strain)
Experimental: as §1, §2

In the case of `CC(=C/C(=O)O)/C=C/C(O)(C(C)C)C1(C#N)CC1` (stereo not shown) [CCP1, (2Z,4E)-6-(1-cyanocyclopropyl)-3-methyl-6-hydroxy-7-methylocta-2,4-dienoic acid], the “LUC reporter induction compared to mock-treated cells” value (RCAR11-ABI2 [1]; 30 µM exogenous ligand, 16 h exposure) is reported as “approximately eightfold”, the “Activation of the ABA response compared to ABA” value (RCAR11-ABI2 [1]; dose-dependent, 0.1-30 µM) is reported as “comparable activity to ABA” and the “Statistical significance of RCAR1-mediated inhibition of ABI2 phosphatase activity vs ABA” value (RCAR1-ABI2; 0.003 µM) is reported as “ns (Otherwise, the difference is regarded as insignificant indicated as “ns”)”. The “Statistical significance of RCAR1-mediated inhibition of ABI2 phosphatase activity vs ABA” value (RCAR1-ABI2; 0.01 µM) was “s (P < 0.05 (one-way ANOVA) is considered as a significant difference and expressed as “s”)”, the “Statistical significance of RCAR1-mediated inhibition of ABI2 phosphatase activity vs ABA” value (RCAR1-ABI2; 0.03 µM) was “s (P < 0.05 (one-way ANOVA) is considered as a significant difference and expressed as “s”)” and the “Statistical significance of RCAR1-mediated inhibition of ABI2 phosphatase activity vs ABA” value (RCAR1-ABI2; 0.1 µM) was “s (P < 0.05 (one-way ANOVA) is considered as a significant difference and expressed as “s”)”. The “IC50 relative to ABA (fold higher)” value (RCAR1-ABI2; 100 nM ABI2 and 200 nM RCAR1) was “approximately 100 fold”, the “Statistical significance of RCAR1-mediated inhibition of ABI2 phosphatase activity vs ABA” value (RCAR1-ABI2; 0.3 µM) was “s (P < 0.05 (one-way ANOVA) is considered as a significant difference and expressed as “s”)” and the “Statistical significance of RCAR1-mediated inhibition of ABI2 phosphatase activity vs ABA” value (RCAR1-ABI2; 1 µM) was “s (P < 0.05 (one-way ANOVA) is considered as a significant difference and expressed as “s”)”. For the same compound, the “Statistical significance of RCAR1-mediated inhibition of ABI2 phosphatase activity vs ABA” value (RCAR1-ABI2; 3 µM) was “s (P < 0.05 (one-way ANOVA) is considered as a significant difference and expressed as “s”)”, the “Statistical significance of RCAR1-mediated inhibition of ABI2 phosphatase activity vs ABA” value (RCAR1-ABI2; 10 µM) was “s (P < 0.05 (one-way ANOVA) is considered as a significant difference and expressed as “s”)” and the “Statistical significance of RCAR1-mediated inhibition of ABI2 phosphatase activity vs ABA” value (RCAR1-ABI2; 30 µM) was “s (P < 0.05 (one-way ANOVA) is considered as a significant difference and expressed as “s”)”. The “Statistical significance of RCAR1-mediated inhibition of ABI2 phosphatase activity vs ABA” value (RCAR1-ABI2; 100 µM) was “s (P < 0.05 (one-way ANOVA) is considered as a significant difference and expressed as “s”)”, the “Potency in reducing transpiration compared to ABA” value (Arabidopsis plants; 10 µM) was “more potent than 100 µM ABA” and the Higher leaf temperature (Arabidopsis plants; 30 µM, nineteen days after administration) was 1.5 °C. For the same compound, the “Duration of persistent response” value (Arabidopsis plants; 10 and 30 µM ligand treatment) was 10 days, the “Potency relative to ABA” value (Arabidopsis plants; 10 and 30 µM ligand vs 100 µM ABA) was “more than tenfold” and the “Duration of effect relative to ABA” value (Arabidopsis plants; 10 and 30 µM ligand vs ABA) was “approximately three times”. The “Efficiency in minimizing transpiration compared to ABA” value (Arabidopsis plants; foliar application) was “by an order of magnitude more efficient than ABA”, the “ABA concentration achieving a temperature increase similar to 10 µM of the CCP” value (Arabidopsis plants; one day after application) was “about 100 µM” and the “Activity and persistence of minimized transpiration compared to ABA” value (Arabidopsis plants; single application 100 µM, recorded for 19 days) was “more active and persistent than ABA”. For the same compound, the “Higher exogenous concentration required for reporter expression comparable to 1 µM ABA” value (RCAR1/PYL9-ABI2) was “approximately 30 x”, the “Activity in in vitro inhibition of ABI1 phosphatase activity” value (ABI1 with RCAR11/PYR1) was “ABA-like activity” and the “IC50 relative to ABA (fold higher)” value (RCAR8-ABI2) was “around 10 fold”. The “Inhibition of ABI2 compared to ABA” value (RCAR11-ABI2 [2]) was “comparable to ABA”, the “Leaf temperature increase, activity compared to ABA” value (wheat plants) was “higher activity than ABA” and the “Reporter induction relative to ABA” value (RCAR8/PYL5-ABI2; 1 µM exogenous ligand) was “approximately half the ABA induction”. The “Higher level required for induction value comparable to 1 µM ABA” value (RCAR8/PYL5-ABI2; yeast, RCAR8-ABI2) was “about 10 x”.
